Reference: patent US9567339B2, “Primary carboxamides as BTK inhibitors” (AbbVie Inc., priority 2013, dated 2017)

Target: BTK, recombinant human catalytic domain (aa 393-659) (Homo sapiens (Human), UniProt Q06187)
Assay: In vitro BTK kinase activity measured by time-resolved fluorescence resonance energy transfer (trFRET)
Assay type: biochemical
Conditions: read-out: Btk IC50

Chain of BTK, recombinant human catalytic domain (aa 393-659) (Q06187 393-659): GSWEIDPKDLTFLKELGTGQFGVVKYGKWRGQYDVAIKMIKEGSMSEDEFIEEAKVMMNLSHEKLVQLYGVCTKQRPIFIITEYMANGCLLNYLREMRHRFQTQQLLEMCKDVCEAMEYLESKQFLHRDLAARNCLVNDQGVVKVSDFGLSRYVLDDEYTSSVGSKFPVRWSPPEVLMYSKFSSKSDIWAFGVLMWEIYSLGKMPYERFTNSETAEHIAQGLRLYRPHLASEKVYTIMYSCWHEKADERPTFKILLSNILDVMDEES

IC50 [nM]	SMILES
1000 to 10000	CC(C)(C)c1ccc(C(=O)N[C@@H]2CCCN(c3ccc(C(N)=O)c4[nH]ccc34)C2)cc1 [O.1.11*]
< 100	C=CC(=O)Nc1cc(F)c(F)c(-c2ccc(C(N)=O)c3[nH]ccc23)c1 [E.1.21]
< 100	Cc1c(NC(=O)C(C)Cl)cccc1-c1ccc(C(N)=O)c2[nH]c(C3=CCN(S(C)(=O)=O)CC3)cc12 (centres unmarked) [D.7.8]
1000 to 10000	C=CC(=O)Nc1cc(OCc2ccccc2)cc(-c2ccc(C(N)=O)c3[nH]ccc23)c1 [E.1.14]
< 100	C=C(CN)C(=O)Nc1cccc(-c2ccc(C(N)=O)c3[nH]ccc23)c1 [G.1.2]
< 100	Cc1c(NC(=O)CCN(C)C)cccc1-c1ccc(C(N)=O)c2[nH]c(C3=CCN(S(C)(=O)=O)CC3)cc12 [D.7.23]
< 100	CC(=O)N1CC=C(c2cc3c(-c4cccc(-n5cnc6ccccc6c5=O)c4C)ccc(C(N)=O)c3[nH]2)CC1 [E.8.2]
< 100	Cc1c(NC(=O)c2cccnc2)cccc1-c1ccc(C(N)=O)c2[nH]c(C3=CCN(S(C)(=O)=O)CC3)cc12 [D.7.39]
< 100	C=CC(=O)N1CCC[C@@H](c2ccc(C(N)=O)c3[nH]c(-c4cnn(C)c4)cc23)C1 [Example 4.1]
100 to 1000	C=CC(=O)N1CC[C@@H](c2ccc(C(N)=O)c3[nH]c(-c4cnn(C)c4)cc23)C1 [E.9.49]
100 to 1000	C=CC(=O)Nc1cc(OCc2nccs2)cc(-c2ccc(C(N)=O)c3[nH]ccc23)c1 [E.1.15]
< 100	C=CC(=O)Nc1cc(-c2ccc(C(N)=O)c3[nH]ccc23)ccc1C#N [E.1.31]
< 100	Cc1c(NC(=O)C2=CCCCC2)cccc1-c1ccc(C(N)=O)c2[nH]c(C3=CCN(S(C)(=O)=O)CC3)cc12 [D.7.19]
< 100	C=C(C)C(=O)Nc1cccc(-c2ccc(C(N)=O)c3[nH]c(C4=CCN(S(C)(=O)=O)CC4)cc23)c1C [D.7.5]
< 100	C=CC(=O)N1CCOC[C@@H](c2ccc(C(N)=O)c3[nH]ccc23)C1 [E.9.38]
< 100	C=CC(=O)Nc1cncc(-c2ccc(C(N)=O)c3[nH]ccc23)c1 [E.1.4]
< 100	C=C(CNC)C(=O)Nc1cccc(-c2ccc(C(N)=O)c3[nH]ccc23)c1 [G.1.3]
< 100	Cc1c(-c2ccc(C(N)=O)c3[nH]c(C4=CCNCC4)cc23)cccc1-n1cnc2ccccc2c1=O [G.1.1, 4-(2-methyl-3-(4-oxoquinazolin-3(4H)-yl)phenyl)-2-(1,2,3,6-tetrahydropyridin-4-yl)-1H-indole-7-carboxamide]
< 100	Cc1c(NC(=O)c2cnsc2)cccc1-c1ccc(C(N)=O)c2[nH]c(C3=CCN(S(C)(=O)=O)CC3)cc12 [D.7.38]
< 100	Cn1cc(-c2cc3c(N4CCC[C@@H](NC(=O)c5ccc(C(C)(C)C)cc5)C4)ccc(C(N)=O)c3[nH]2)cn1 [O.1.19*]
100 to 1000	Cn1cc(-c2cc3c(N4CCC[C@@H](NC(=O)c5ccc(C(F)(F)F)cc5)C4)ccc(C(N)=O)c3[nH]2)cn1 [O.1.21*]
< 100	C=CC(=O)Nc1cccc(-c2ccc(C(N)=O)c3[nH]c(C4=CCN(S(C)(=O)=O)CC4)cc23)c1C [D.7.6]
< 100	C=CC(=O)N1CCC[C@@H](c2cnc(C(N)=O)c3sc(-c4cnn(C)c4)nc23)C1 [E.9.37]
1000 to 10000	COc1ccc(C(=O)N[C@@H]2CCCN(c3ccc(C(N)=O)c4[nH]ccc34)C2)cc1 [O.1.9*]
< 100	C=CC(=O)Nc1cc(-c2ccc(C(N)=O)c3[nH]ccc23)ccn1 [E.1.3]

Same assay, conditions: trFRET, 0.001 mM ATP, biotin-TYR1 peptide substrate; read-out: Btk IC50

IC50 [nM]	SMILES
< 100	Cc1c(NC(=O)c2nccs2)cccc1-c1ccc(C(N)=O)c2[nH]c(-c3cnn(C)c3)cc12 [A.2.2]
1000 to 10000	C=C(C)C(=O)Nc1cccc(-c2ccc(C(N)=O)c3[nH]ccc23)c1C [D.8.10]
100 to 1000	Cc1c(NC(=O)c2nccs2)cccc1-c1ccc(C(N)=O)c2[nH]cc(C)c12 [Example 3, N-(3-(7-carbamoyl-3-methyl-1H-indol-4-yl)-2-methylphenyl)thiazole-2-carboxamide]
1000 to 10000	Cc1c(NC(=O)c2cc3c(s2)CCCC3)cccc1-c1ccc(C(N)=O)c2[nH]c(-c3ccc(F)cc3)cc12 [A.9.7]
< 100	Cc1c(NC(=O)c2cc3c(s2)CCCC3)cccc1-c1ccc(C(N)=O)c2[nH]c(-c3cnn(C)c3)cc12 [A.10.5]
< 100	C=CC(=O)Nc1cccc(-c2ccc(C(N)=O)c3[nH]c(-c4ccnn4C)cc23)c1C [A.1.11]
< 100	CC(=O)N1CC=C(c2cc3c(-c4cccc(NC(=O)c5ccc(C(C)(C)C#N)cc5)c4C)ccc(C(N)=O)c3[nH]2)CC1 [A.3.8]
< 100	C=CC(=O)Nc1cccc(-c2ccc(C(N)=O)c3[nH]c(-c4cnn(CC(C)C)c4)cc23)c1C [A.1.7]
< 100	C=CC(=O)NCc1cccc(-c2ccc(C(N)=O)c3[nH]c(C4=CCN(S(C)(=O)=O)CC4)cc23)c1 [A.4.1]
< 100	Cc1c(-c2ccc(C(N)=O)c3[nH]c(-c4cnn(C)c4)cc23)cccc1-n1cnc2ccccc2c1=O [A.10.1]
< 100	COC(=O)/C=C/C(=O)Nc1cccc(-c2ccc(C(N)=O)c3[nH]ccc23)c1 [D.1, (E)-Methyl 4-((3-(7-carbamoyl-1H-indol-4-yl)phenyl)amino)-4-oxobut-2-enoate]
100 to 1000	Cc1c(NC(=O)/C=C/c2cnn(C)c2)cccc1-c1ccc(C(N)=O)c2[nH]ccc12 [D.8.2]
< 100	C=CC(=O)Nc1cccc(-c2ccc(C(N)=O)c3[nH]c(-c4ccc(OC)cc4)cc23)c1C [A.1.23]
< 100	C=CC(=O)N1CC(Oc2ccc(C(N)=O)c3[nH]ccc23)C1 [Example 27, 4-((1-Acryloylazetidin-3-yl)oxy)-1H-indole-7-carboxamide]
< 100	C=CC(=O)Nc1cccc(-c2ccc(C(N)=O)c3[nH]c(-c4cnn(C(C)C)c4)cc23)c1C [A.1.4]
100 to 1000	C=CC(=O)Nc1cccc(-c2ccc(C(N)=O)c3[nH]c(-c4c(C)n[nH]c4C)cc23)c1C [A.1.3]
< 100	C=CC(=O)Nc1cccc(-c2ccc(C(N)=O)c3[nH]c(-c4ccc(F)cc4)cc23)c1C [A.1.32]
< 100	C=CC(=O)Nc1ccccc1-c1ccc(C(N)=O)c2[nH]c(C3=CCN(S(C)(=O)=O)CC3)cc12 [A.4.3]
1000 to 10000	NC(=O)c1ccc(-c2ccccc2N)c2cc[nH]c12 [A.5.1, 4-(2-aminophenyl)-1H-indole-7-carboxamide]
100 to 1000	Cc1ccc(-c2cc3c(-c4cccs4)ccc(C(N)=O)c3[nH]2)cc1 [A.8.9]
< 100	Cc1c(-c2ccc(C(N)=O)c3[nH]c(C4=CCN(C)C4)cc23)cccc1-n1cnc2ccccc2c1=O [H.1, 2-(1-Methyl-2,5-dihydro-1H-pyrrol-3-yl)-4-(2-methyl-3-(4-oxoquinazolin-3(4H)-yl)phenyl)-1H-indole-7-carboxamide]
1000 to 10000	Cc1c(NC(=O)CCN2CCCC2)cccc1-c1ccc(C(N)=O)c2[nH]ccc12 [D.8.14]
1000 to 10000	NC(=O)c1ccc(-c2cccc(NC(=O)/C=C/C(=O)NC3CC3)c2)c2cc[nH]c12 [D.4.4]
< 100	C=CC(=O)Nc1cccc(-c2ccc(C(N)=O)c3[nH]ncc23)c1 [Example 18, 4-(3-Acrylamidophenyl)-1H-indazole-7-carboxamide]
100 to 1000	CS(=O)(=O)N1CC=C(c2cc3c(N4CCC[C@@H](N5CCCCC5=O)C4)ccc(C(N)=O)c3[nH]2)CC1 [Example 12, (R)-2-(1-(Methylsulfonyl)-1,2,3,6-tetrahydropyridin-4-yl)-4-(2-oxo-1,3′-bipiperidin-1′-yl)-1H-indole-7-carboxamide]
